Experimental data reported in patent US10051857B2, “Formulation component” (SYNGENTA LIMITED, priority 2011, dated 2018).

Legend:
Type in all cases: in vivo
[1] = tested on: Abutilon theophrasti (ABUTH); assay: Glasshouse adjuvant test with fomesafen (Example 5); details: fomesafen 60 or 120 g/ha, adjuvant 0.2% v/v or none, 200 l/ha; growth stage 12; mean over two rates, three replicates, 7, 14 and 21 days
Method: (§1) Compound 1 (N, N-diethyl-3-methylbenzamide) was tested in a glasshouse against four weed species using the herbicide fomesafen. An agrochemical composition was prepared containing 0.2% v/v of the adjuvant in a track sprayer and was applied at a volume of 200 liters per hectare. Fomesafen was applied at either 60 or 120 grams of pesticide per hectare on each of the weed species. The weed species and their growth stage at spraying were Chenopodium album (CHEAL; growth stage 13/14), Abutilon theophrasti (ABUTH; growth stage 12), Setaria viridis (SETVI; growth stage 13), and Xanthium strumarium (XANST; growth stage 12).
(§2) Each spray test was replicated three times. The efficacy of the herbicide was assessed visually and expressed as a percentage of the leaf area killed. Samples were assessed at time periods of 7, 14 and 21 days following application. The results shown in Table 5 below are mean averages over the two rates of fomesafen, three replicates and the three assessment timings, and are compared to the efficacy of fomesafen in the absence of adjuvant.

[2] = tested on: Chenopodium album (CHEAL); assay: as above; details: fomesafen 60 or 120 g/ha, adjuvant 0.2% v/v or none, 200 l/ha; growth stage 13/14; mean over two rates, three replicates, 7, 14 and 21 days
Method: as §1, §2

Setaria viridis (SETVI) = assay: as above; details: fomesafen 60 or 120 g/ha, adjuvant 0.2% v/v or none, 200 l/ha; growth stage 13; mean over two rates, three replicates, 7, 14 and 21 days
Method: as §1, §2

[3] = tested on: Xanthium strumarium (XANST); assay: as above; details: fomesafen 60 or 120 g/ha, adjuvant 0.2% v/v or none, 200 l/ha; growth stage 12; mean over two rates, three replicates, 7, 14 and 21 days
Method: as §1, §2

[4] = tested on: Amaranthus tuberculatus (AMATE); assay: Glasshouse adjuvant test with mesotrione (Example 6); details: mesotrione 45 or 90 g/ha, adjuvant 0.2% v/v or none, 200 l/ha; growth stage 13/14; mean over two rates, three replicates, 7, 14 and 21 days
Method: (§3) Compound 1 was tested in a glasshouse against four weed species using the herbicide mesotrione. A 20% w/w stock emulsion of compound 1 was prepared additionally containing 2% w/w Gohsenol® GL03 and 2% w/w Pluronic® PE10500 as surfactants. Using this, an agrochemical composition was prepared containing 0.2% v/v of the adjuvant in a track sprayer and was applied at a volume of 200 liters per hectare. Mesotrione was applied at either 45 or 90 grams of pesticide per hectare on each of the weed species. The weed species and their growth stage at spraying were Amaranthus tuberculatus (AMATE; growth stage 13/14), Brachiaria decumbens (BRADE; growth stage 13/14), Digitaria sanguinalis (DIGSA; growth stage 14), and Polygonum convolvulus (POLCO; growth stage 11/11.5).
as §2, with “Each” for “Each spray”, “6” for “5”, “mesotrione,” for “fomesafen,”, “mesotrione” for “fomesafen”, “in” for “in the”

[5] = tested on: Brachiaria decumbens (BRADE); assay: as above; details: mesotrione 45 or 90 g/ha, adjuvant 0.2% v/v or none, 200 l/ha; growth stage 13/14; mean over two rates, three replicates, 7, 14 and 21 days
Method: as §3
as §2, with “Each” for “Each spray”, “6” for “5”, “mesotrione,” for “fomesafen,”, “mesotrione” for “fomesafen”, “in” for “in the”

[6] = tested on: Digitaria sanguinalis (DIGSA); assay: as above; details: mesotrione 45 or 90 g/ha, adjuvant 0.2% v/v or none, 200 l/ha; growth stage 14; mean over two rates, three replicates, 7, 14 and 21 days
Method: as §3
as §2, with “Each” for “Each spray”, “6” for “5”, “mesotrione,” for “fomesafen,”, “mesotrione” for “fomesafen”, “in” for “in the”

[7] = tested on: Polygonum convolvulus (POLCO); assay: as above; details: mesotrione 45 or 90 g/ha, adjuvant 0.2% v/v or none, 200 l/ha; growth stage 11/11.5; mean over two rates, three replicates, 7, 14 and 21 days
Method: as §3
as §2, with “Each” for “Each spray”, “6” for “5”, “mesotrione,” for “fomesafen,”, “mesotrione” for “fomesafen”, “in” for “in the”

[8] = tested on: four weed species (AMATE, BRADE, DIGSA, POLCO); assay: Glasshouse adjuvant test with mesotrione (Example 6), mean across species; details: mesotrione 45 or 90 g/ha, adjuvant 0.2% v/v or none
[9] = tested on: four weed species (ABUTH, CHEAL, DIGSA, SETVI); assay: Glasshouse adjuvant test with nicosulfuron (Example 7), mean across species; details: nicosulfuron 30 or 60 g/ha, adjuvant 0.2% v/v or none
Method: Compound 1 was tested in a glasshouse against four weed species using the herbicide nicosulfuron. A 20% w/w stock emulsion of compound 1 was prepared additionally containing 2% w/w Gohsenol® GL03 and 2% w/w Pluronic® PE10500 as surfactants. Using this, an agrochemical composition was prepared containing 0.2% v/v of the adjuvant in a track sprayer and was applied at a volume of 200 liters per hectare. Nicosulfuron was applied at either 30 or 60 grams of pesticide per hectare on each of the weed species. The weed species and their growth stage at spraying were Abutilon theophrasti (ABUTH; growth stage 13), Chenopodium album (CHEAL; growth stage 14), Digitaria sanguinalis (DIGSA; growth stage 13), and Setaria viridis (SETVI; growth stage 13).
Each spray test replicated three times. The efficacy of the herbicide was assessed visually and expressed as a percentage of the leaf area killed. Samples were assessed at time periods of 14 and 21 days following application. The results shown in Table 7 below are mean averages over the two rates of nicosulfuron, three replicates and the two assessment timings, and are compared to the efficacy of nicosulfuron in the absence of an adjuvant.

Avena fatua (AVEFA) = assay: Glasshouse adjuvant test with pinoxaden (Example 8); details: pinoxaden 7.5 or 15 g/ha, adjuvant 0.2% v/v or none, 200 l/ha; growth stage 12; mean over two rates, three replicates, 14 and 21 days
Method: (§4) The adjuvant shown in example 1 was tested in a glasshouse against four weed species in combination with the herbicide pinoxaden. A 20% w/w stock emulsion of compound 1 was prepared additionally containing 2% w/w Gohsenol® GL03 and 2% w/w Pluronic® PE10500 as surfactants. Using this, an agrochemical composition was prepared containing 0.2% v/v of the adjuvant in a track sprayer and was applied at a volume of 200 liters per hectare. Pinoxaden was applied at either 7.5 or 15 grams of pesticide per hectare on each of the weed species. The weed species and their growth stage at spraying were Alopecurus myosuroides (ALOMY; growth stage 13), Avena fatua (AVEFA; growth stage 12); Lolium perenne (LOLPE; growth stage 13), Setaria viridis (SETVI; growth stage 14).
as §2, with “of” for “of 7,”, “Table 8” for “Table 5 below”, “of pinoxaden,” for “of fomesafen,”, “the two” for “the three”, “of pinoxaden” for “of fomesafen”

[10] = tested on: four weed species (ALOMY, AVEFA, LOLPE, SETVI); assay: Glasshouse adjuvant test with pinoxaden (Example 8), mean across species; details: pinoxaden 7.5 or 15 g/ha, adjuvant 0.2% v/v or none
Method: as §4
as §2, with “of” for “of 7,”, “Table 8” for “Table 5 below”, “of pinoxaden,” for “of fomesafen,”, “the two” for “the three”, “of pinoxaden” for “of fomesafen”

In the case of `CCN(CC)C(=O)c1cccc(C)c1` [Compound 1, N, N-diethyl-3-methylbenzamide], the “Mean percentage kill ABUTH” value [1] is reported as 38.9%, the “Mean percentage kill CHEAL” value [2] is reported as 80.3% and the “Mean percentage kill SETVI” value (Setaria viridis (SETVI)) is reported as 15.8%. For the same molecule, the “Mean percentage kill XANST” value [3] was 35.6%, the “Mean percentage kill AMATE” value [4] was 71.7% and the “Mean percentage kill BRADE” value [5] was 28.9%. For the same molecule, the “Mean percentage kill DIGSA” value [6] was 28.6%, the “Mean percentage kill POLCO” value [7] was 87.2% and the “Mean percentage kill, Mean across species” value [8] was 54.1%. The “Mean percentage kill, Mean across species” value [9] was 81.3%, the “Mean percentage kill AVEFA” value (Avena fatua (AVEFA)) was 29.2% and the “Mean percentage kill, Mean across species” value [10] was 22.1%.
